According to US7074789B2, “Kinase inhibitors” (Amgen Inc., priority 1999, dated 2006):
Where two headings read alike, the source gives them in different places.

Key:
Assay type in all cases: biochemical
[1] = molecular target: T1, IGFR-1 (Homo sapiens, UniProt P08069); test: Kinase inhibition assay (33P transfer), IGFR-1; details: Table 2, class symbols A-E
T1 construct: Kinases are expressed as either kinase domains or full length constructs; made in house

[2] = molecular target: T2, AKT (Homo sapiens, UniProt Q9Y243); test: Kinase inhibition assay (33P transfer), AKT; details: read-out: AKT3-1
T2 construct: Kinases are expressed as either kinase domains or full length constructs; made in house
T2 sequence (Q9Y243 whole entry, the tested form may be a part): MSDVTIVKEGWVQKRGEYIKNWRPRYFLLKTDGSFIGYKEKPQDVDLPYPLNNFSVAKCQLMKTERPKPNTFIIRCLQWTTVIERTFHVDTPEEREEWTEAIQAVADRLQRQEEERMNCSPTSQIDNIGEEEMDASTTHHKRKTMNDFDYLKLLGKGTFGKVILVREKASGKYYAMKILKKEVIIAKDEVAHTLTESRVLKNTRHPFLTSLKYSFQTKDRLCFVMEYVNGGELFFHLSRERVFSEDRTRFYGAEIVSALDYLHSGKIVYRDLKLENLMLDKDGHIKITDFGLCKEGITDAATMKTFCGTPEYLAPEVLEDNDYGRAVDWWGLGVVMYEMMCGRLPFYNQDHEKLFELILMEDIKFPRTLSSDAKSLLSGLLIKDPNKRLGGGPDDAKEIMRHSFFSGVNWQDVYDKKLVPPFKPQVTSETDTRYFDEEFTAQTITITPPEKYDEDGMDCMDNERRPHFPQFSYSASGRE
Summary of the method: (§1)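 33P-ATP transfer to coated synthetic polymer substrates; acid wash (0.5% H3PO4), scintillant, liquid scintillation count. Enzymes: His- or GST-fusion kinases from E. coli or High Five insect cells.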

[3] = molecular target: T3, Kdr (Homo sapiens, UniProt P35968); test: Kinase inhibition assay (33P transfer), Kdr; details: read-out: KDR-1
T3 construct: Kinases are expressed as either kinase domains or full length constructs; made in house
Summary of the method: as §1

[4] = molecular target: T4, Zap-70 (Homo sapiens, UniProt P43403); test: Kinase inhibition assay (33P transfer), Zap-70; details: read-out: Zap-1
T4 construct: Kinases are expressed as either kinase domains or full length constructs; made in house
T4 sequence (P43403 1-619): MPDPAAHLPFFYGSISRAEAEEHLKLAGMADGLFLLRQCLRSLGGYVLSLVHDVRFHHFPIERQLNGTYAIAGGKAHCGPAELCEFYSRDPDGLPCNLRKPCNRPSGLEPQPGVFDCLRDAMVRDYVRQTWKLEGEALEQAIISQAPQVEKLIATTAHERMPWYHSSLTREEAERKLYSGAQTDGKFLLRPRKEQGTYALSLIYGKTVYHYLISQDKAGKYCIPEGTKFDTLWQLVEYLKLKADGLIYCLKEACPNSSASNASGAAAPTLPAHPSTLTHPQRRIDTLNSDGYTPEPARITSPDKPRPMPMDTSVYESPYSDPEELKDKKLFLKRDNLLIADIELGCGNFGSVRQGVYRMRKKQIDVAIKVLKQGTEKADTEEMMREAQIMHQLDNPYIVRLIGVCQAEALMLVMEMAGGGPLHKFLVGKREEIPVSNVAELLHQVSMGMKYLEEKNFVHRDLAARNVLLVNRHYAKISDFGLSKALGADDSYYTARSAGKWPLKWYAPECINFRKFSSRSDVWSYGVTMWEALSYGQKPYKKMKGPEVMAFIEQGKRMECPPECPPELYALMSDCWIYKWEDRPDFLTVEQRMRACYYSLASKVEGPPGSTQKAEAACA
Summary of the method: as §1

[5] = molecular target: T5, EGFR (Homo sapiens, UniProt P00533); test: Kinase inhibition assay (33P transfer), EGFR; details: read-out: EGFR-1
T5 construct: Kinases are expressed as either kinase domains or full length constructs; made in house
Summary of the method: (§2)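 Using immobilised substrate copolymers (poly(Glu,Tyr) 4:1; poly(Arg,Ser) 3:1) and [33P]ATP, purified fusion kinases were allowed to react; plates were then rinsed in 0.5% phosphoric acid and counted in a scintillation detector. Half-maximal inhibition of label transfer defines IC50.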

[6] = molecular target: T6, Lck (Homo sapiens, UniProt P06239); test: Kinase inhibition assay (33P transfer), Lck; details: read-out: Lck-1
T6 construct: Kinases are expressed as either kinase domains or full length constructs; made in house
T6 sequence (P06239 whole entry, species assumed, the tested form may be a part): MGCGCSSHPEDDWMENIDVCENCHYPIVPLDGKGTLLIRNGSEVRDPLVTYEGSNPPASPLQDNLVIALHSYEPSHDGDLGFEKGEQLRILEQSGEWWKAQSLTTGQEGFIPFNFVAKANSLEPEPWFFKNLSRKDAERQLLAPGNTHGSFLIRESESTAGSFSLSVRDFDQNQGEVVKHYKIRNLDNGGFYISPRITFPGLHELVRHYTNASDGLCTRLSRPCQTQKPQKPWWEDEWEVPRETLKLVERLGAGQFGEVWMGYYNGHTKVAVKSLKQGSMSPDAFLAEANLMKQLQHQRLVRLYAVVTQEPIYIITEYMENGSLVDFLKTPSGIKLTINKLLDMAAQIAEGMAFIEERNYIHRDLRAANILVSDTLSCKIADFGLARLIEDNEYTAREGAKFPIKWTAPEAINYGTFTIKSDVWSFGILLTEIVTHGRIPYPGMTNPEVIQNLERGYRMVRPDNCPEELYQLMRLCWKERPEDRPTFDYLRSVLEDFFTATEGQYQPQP
Summary of the method: as §1

[7] = molecular target: T7, c-Met (Homo sapiens, UniProt P08581); test: Kinase inhibition assay (33P transfer), c-Met; details: read-out: Met-1
T7 construct: Kinases are expressed as either kinase domains or full length constructs; made in house
T7 sequence (P08581 25-1390): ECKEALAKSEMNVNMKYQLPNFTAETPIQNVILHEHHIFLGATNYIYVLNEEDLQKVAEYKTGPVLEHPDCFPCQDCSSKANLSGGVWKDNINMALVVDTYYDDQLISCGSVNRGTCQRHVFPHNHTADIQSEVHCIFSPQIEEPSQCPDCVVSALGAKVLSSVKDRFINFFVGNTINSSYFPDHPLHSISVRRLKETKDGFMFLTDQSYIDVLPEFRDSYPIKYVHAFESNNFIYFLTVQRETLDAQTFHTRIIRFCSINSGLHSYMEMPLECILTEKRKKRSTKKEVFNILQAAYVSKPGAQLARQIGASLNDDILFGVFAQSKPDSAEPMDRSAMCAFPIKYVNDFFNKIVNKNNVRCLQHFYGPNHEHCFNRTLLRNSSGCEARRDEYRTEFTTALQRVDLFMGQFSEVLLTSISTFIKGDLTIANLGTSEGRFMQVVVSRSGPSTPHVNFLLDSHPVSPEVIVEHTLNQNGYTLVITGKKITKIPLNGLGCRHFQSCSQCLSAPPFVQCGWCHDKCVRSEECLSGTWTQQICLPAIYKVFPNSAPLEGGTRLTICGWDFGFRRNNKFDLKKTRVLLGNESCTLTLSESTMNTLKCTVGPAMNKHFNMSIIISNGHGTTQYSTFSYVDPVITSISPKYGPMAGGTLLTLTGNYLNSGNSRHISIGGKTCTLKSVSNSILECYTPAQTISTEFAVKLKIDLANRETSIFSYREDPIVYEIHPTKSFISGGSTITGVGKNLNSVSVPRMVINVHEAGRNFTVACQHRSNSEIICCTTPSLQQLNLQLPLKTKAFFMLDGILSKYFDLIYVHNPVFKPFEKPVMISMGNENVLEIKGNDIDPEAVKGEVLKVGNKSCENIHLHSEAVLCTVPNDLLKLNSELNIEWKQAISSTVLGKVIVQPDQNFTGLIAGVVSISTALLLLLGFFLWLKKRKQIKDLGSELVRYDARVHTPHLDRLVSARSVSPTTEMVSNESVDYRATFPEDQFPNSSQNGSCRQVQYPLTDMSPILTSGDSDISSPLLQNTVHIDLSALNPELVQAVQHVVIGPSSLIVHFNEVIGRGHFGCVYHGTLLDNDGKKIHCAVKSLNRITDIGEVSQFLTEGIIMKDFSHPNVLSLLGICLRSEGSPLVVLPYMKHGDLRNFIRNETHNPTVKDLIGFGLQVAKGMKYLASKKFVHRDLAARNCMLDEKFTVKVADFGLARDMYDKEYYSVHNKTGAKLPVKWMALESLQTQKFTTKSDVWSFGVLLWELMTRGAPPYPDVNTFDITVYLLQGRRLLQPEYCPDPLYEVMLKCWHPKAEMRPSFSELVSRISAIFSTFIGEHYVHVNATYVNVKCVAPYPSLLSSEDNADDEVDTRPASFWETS
Summary of the method: as §2

[8] = molecular target: T8, Itk (Homo sapiens, UniProt Q08881); test: Kinase inhibition assay (33P transfer), Itk; details: read-out: Itk-1
T8 construct: Kinases are expressed as either kinase domains or full length constructs; made in house
T8 sequence (Q08881 1-620): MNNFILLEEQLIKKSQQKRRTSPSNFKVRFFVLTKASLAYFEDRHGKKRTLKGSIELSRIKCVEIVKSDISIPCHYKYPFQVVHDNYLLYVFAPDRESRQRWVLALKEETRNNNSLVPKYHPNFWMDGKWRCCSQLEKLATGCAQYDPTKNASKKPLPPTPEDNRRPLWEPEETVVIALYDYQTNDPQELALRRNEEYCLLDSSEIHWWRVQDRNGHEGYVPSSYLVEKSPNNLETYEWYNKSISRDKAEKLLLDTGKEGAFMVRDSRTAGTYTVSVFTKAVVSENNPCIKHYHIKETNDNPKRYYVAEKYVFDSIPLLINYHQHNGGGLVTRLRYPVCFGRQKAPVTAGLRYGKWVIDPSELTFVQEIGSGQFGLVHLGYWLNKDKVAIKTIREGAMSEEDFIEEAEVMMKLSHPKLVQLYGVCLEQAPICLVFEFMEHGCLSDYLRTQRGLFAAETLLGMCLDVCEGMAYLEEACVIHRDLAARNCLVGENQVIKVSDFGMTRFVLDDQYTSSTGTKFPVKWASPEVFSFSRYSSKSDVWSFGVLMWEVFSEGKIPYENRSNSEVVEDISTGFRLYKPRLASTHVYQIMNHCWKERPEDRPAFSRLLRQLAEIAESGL
Summary of the method: as §2

[9] = molecular target: T9, Tek (Homo sapiens, UniProt Q02763); test: Kinase inhibition assay (33P transfer), Tek; details: read-out: Tek-1
T9 construct: Kinases are expressed as either kinase domains or full length constructs; made in house
Summary of the method: as §2

[10] = molecular target: T10, ErbB4 (Homo sapiens, UniProt Q15303); test: Kinase inhibition assay (33P transfer), ErbB4; details: read-out: ErbB4-1
T10 construct: Kinases are expressed as either kinase domains or full length constructs; made in house
T10 sequence (Q15303 26-1308, species assumed): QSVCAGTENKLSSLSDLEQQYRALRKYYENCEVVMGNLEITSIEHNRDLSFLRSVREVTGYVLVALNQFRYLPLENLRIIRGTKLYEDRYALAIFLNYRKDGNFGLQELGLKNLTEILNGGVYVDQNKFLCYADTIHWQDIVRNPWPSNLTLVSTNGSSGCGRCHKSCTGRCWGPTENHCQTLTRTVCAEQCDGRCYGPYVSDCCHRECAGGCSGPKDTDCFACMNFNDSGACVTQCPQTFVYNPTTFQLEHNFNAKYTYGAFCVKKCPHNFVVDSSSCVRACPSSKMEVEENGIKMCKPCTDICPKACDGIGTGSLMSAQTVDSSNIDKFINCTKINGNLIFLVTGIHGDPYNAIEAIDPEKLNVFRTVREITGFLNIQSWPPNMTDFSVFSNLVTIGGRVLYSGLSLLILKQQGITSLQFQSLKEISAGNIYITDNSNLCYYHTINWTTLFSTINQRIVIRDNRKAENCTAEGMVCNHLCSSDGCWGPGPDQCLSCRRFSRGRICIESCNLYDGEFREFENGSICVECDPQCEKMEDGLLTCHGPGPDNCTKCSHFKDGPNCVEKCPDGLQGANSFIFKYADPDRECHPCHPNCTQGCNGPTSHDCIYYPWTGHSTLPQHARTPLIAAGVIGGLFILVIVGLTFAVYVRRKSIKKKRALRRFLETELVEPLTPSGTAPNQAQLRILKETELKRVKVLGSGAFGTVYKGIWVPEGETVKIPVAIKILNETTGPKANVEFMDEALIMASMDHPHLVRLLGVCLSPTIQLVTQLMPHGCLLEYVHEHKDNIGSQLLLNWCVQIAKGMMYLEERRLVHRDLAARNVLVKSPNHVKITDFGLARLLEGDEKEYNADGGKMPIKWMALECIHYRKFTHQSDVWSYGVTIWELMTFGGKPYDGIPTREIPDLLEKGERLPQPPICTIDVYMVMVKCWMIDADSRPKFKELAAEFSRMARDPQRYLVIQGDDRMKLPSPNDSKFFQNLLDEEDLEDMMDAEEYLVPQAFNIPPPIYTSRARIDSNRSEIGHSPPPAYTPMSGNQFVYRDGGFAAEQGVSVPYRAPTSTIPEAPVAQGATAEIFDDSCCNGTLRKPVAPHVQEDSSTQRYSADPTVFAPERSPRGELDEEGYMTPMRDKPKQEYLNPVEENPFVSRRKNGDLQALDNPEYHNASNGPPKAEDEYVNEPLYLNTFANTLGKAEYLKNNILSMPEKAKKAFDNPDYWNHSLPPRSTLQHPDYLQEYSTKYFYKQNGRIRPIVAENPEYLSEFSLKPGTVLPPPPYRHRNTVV

[11] = molecular target: T11, EPHB4 (Homo sapiens, UniProt P54760); test: Kinase inhibition assay (33P transfer), EPHB4; details: read-out: EPHB4-1
T11 construct: Kinases are expressed as either kinase domains or full length constructs; made in house
T11 sequence (P54760 16-987): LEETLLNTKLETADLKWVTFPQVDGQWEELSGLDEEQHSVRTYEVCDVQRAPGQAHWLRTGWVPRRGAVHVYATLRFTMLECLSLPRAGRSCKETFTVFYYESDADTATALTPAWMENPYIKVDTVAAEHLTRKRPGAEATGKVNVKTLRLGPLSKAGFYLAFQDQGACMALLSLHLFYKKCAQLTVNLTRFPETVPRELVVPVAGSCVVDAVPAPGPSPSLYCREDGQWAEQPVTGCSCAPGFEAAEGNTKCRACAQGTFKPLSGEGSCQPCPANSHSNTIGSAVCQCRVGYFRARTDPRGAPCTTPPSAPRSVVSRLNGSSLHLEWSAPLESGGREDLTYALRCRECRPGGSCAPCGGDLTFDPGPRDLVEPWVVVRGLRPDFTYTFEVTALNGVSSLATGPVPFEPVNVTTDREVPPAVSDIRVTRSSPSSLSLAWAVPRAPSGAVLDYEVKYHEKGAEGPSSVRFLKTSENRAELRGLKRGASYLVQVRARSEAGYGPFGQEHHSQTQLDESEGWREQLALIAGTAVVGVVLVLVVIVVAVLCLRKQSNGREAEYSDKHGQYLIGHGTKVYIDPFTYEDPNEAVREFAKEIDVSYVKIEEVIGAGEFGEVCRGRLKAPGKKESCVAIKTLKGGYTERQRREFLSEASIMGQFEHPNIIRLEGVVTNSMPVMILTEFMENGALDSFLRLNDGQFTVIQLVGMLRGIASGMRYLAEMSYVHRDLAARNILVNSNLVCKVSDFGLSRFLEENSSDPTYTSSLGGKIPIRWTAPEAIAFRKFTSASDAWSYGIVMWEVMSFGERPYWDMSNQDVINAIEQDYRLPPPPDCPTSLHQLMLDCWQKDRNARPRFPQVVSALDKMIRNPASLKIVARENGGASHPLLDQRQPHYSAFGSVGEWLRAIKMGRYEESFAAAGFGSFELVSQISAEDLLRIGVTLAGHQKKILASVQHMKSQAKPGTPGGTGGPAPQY

[12] = molecular target: T1, IGFR-1; test: Kinase inhibition assay (33P transfer), IGFR-1; details: Table 2, kinase inhibition class
[13] = Table 2, kinase inhibition class

T1 sequence (P08069 31-1367): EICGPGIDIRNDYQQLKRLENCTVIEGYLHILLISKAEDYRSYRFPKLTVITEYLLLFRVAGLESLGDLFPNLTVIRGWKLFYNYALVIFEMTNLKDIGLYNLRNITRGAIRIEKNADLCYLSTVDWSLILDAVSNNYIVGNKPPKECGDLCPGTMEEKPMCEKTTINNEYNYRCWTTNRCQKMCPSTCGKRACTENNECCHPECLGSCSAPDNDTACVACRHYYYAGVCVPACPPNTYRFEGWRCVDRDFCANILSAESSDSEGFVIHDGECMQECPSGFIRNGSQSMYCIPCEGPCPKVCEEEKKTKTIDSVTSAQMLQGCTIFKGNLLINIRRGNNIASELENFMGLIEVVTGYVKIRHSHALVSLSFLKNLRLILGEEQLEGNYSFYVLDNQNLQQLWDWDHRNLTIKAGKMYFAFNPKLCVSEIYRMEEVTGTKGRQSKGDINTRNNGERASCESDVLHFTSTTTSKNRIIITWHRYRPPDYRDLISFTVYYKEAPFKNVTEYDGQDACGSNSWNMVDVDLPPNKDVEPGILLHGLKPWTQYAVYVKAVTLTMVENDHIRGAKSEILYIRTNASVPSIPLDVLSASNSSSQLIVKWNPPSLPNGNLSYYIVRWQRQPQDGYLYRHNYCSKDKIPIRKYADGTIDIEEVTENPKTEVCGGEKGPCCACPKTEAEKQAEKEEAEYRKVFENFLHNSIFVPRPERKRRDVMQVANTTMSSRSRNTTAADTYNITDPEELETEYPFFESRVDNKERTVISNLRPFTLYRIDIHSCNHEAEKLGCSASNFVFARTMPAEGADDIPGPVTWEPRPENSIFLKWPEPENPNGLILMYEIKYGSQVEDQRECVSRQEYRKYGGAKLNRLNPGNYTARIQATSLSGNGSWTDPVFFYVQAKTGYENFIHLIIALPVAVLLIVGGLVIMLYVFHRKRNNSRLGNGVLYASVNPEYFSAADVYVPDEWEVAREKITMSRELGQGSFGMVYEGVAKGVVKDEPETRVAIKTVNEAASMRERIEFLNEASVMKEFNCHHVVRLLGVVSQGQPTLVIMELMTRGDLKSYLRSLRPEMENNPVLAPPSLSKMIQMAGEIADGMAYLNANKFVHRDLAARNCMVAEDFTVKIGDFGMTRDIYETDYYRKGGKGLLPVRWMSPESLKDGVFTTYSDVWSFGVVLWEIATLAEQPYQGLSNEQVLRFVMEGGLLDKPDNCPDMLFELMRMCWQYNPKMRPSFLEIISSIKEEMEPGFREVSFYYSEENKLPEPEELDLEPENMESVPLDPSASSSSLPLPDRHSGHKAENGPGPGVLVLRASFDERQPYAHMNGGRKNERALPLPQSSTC

Compound	IC50 [1]	IC50 ([2]; Table 2, class symbols A-E)	IC50 ([3]; Table 3, class symbols)	IC50 ([4]; Table 3, class symbols)	IC50 ([5]; Table 2, class symbols A-E)	IC50 ([6]; Table 3, class symbols)	IC50 ([7]; Table 2, class symbols A-E)	IC50 ([8]; Table 3, class symbols)	IC50 [2, 13]	IC50 ([3]; Table 3)	IC50 ([4]; Table 3)	IC50 [5, 13]	IC50 [9]	IC50 ([6]; Table 3)	IC50 [10]	IC50 [7, 13]	IC50 [11]	IC50 [12]	IC50 ([8]; Table 3)
CCOC(=O)Cc1ccc(Nc2ncnc(Nc3cc(OC)c(OC)c(OC)c3)n2)cc1 [Compound 62]	–	–	–	–	–	–	–	–	> 10.2 µM	0.91 to 5.46 µM	> 10.2 µM	< 0.91 µM	> 10.2 µM	0.91 to 5.46 µM	> 10.2 µM	7.96 to 10.2 µM	> 10.2 µM	0.91 to 5.46 µM	> 10.2 µM
COc1cc(Nc2ncnc(Nc3cccc(C(=O)O)c3)n2)cc(OC)c1OC [Compound 933]	–	–	–	–	–	–	–	–	> 11.3 µM	1.01 to 6.04 µM	> 11.3 µM	< 1.01 µM	–	1.01 to 6.04 µM	1.01 to 6.04 µM	> 11.3 µM	6.04 to 8.81 µM	1.01 to 6.04 µM	> 11.3 µM
COc1ccc(Nc2ncnc(Nc3ccc(OCc4ccccc4)cc3)n2)cc1O [Compound 171]	–	–	–	–	–	–	–	–	0.963 to 5.78 µM	> 10.8 µM	> 10.8 µM	< 0.963 µM	> 10.8 µM	> 10.8 µM	> 10.8 µM	> 10.8 µM	5.78 to 8.42 µM	> 10.8 µM	> 10.8 µM

The next lines start with the values.

IC50 [1]	IC50 ([2]; Table 2, class symbols A-E)	IC50 ([3]; Table 3, class symbols)	IC50 ([4]; Table 3, class symbols)	IC50 ([5]; Table 2, class symbols A-E)	IC50 ([6]; Table 3, class symbols)	IC50 ([7]; Table 2, class symbols A-E)	IC50 ([8]; Table 3, class symbols)	IC50 [2, 13]	IC50 ([3]; Table 3)	IC50 ([4]; Table 3)	IC50 [5, 13]	IC50 [9]	IC50 ([6]; Table 3)	IC50 [10]	IC50 [7, 13]	IC50 [11]	IC50 [12]	IC50 ([8]; Table 3)	Compound
> 13.4 µM	> 13.4 µM	1.19 to 7.13 µM	10.4 to 13.4 µM	10.4 to 13.4 µM	1.19 to 7.13 µM	10.4 to 13.4 µM	10.4 to 13.4 µM	–	–	–	–	–	–	–	–	–	–	–	CC(C)Nc1ncccc1-c1ncnc(Nc2cccc(CO)c2)n1 [Compound 1114]
> 12 µM	> 12 µM	> 12 µM	> 12 µM	> 12 µM	> 12 µM	> 12 µM	> 12 µM	–	–	–	–	–	–	–	–	–	–	–	Cc1ccc2c(c1)CCCN2c1ncnc(NCc2ccc(C(=O)O)cc2)n1 [Compound 853]
–	–	–	–	–	–	–	–	> 11.8 µM	< 1.05 µM	> 11.8 µM	1.05 to 6.29 µM	6.29 to 9.18 µM	1.05 to 6.29 µM	1.05 to 6.29 µM	6.29 to 9.18 µM	> 11.8 µM	1.05 to 6.29 µM	> 11.8 µM	COc1cc(Nc2ncnc(Nc3cc(C)ccc3C)n2)cc(OC)c1OC [Compound 932]
–	–	–	–	–	–	–	–	> 9.83 µM	0.873 to 5.24 µM	> 9.83 µM	< 0.873 µM	0.873 to 5.24 µM	0.873 to 5.24 µM	5.24 to 7.64 µM	0.873 to 5.24 µM	0.873 to 5.24 µM	> 9.83 µM	> 9.83 µM	COc1cc(Nc2ncnc(N(CCC(C)C)c3ccc(Cl)cc3)n2)cc(OC)c1OC [Compound 51]
